In brackets after ≈: the same amount, converted by molar mass.
How the values were obtained:
Format in all cases: cell-based
Balb/c 3T3 fibroblasts = assay: Norfloxacin 3T3 phototoxicity test with or without DHQ treatment (Neutral Red uptake); details: for Photoprotective effect against norfloxacin phototoxicity: increasing concentrations in treatment medium, UVA
Description: The phototoprotective potential of Dihydroquercetin was assessed using a method based on Norfloxacin phototoxicity test on fibroblasts […]. […] The study was aimed at evaluating the photoprotective potential of one test item, dihydroquercetin, against the deleterious effects of UVA exposure in presence of phototoxic substances such as Norfloxacin or chlorpromazin. Briefly, Balb/c 3T3 fibroblasts were maintained in culture for 48 h for formation of monolayers. Norfloxacin 3T3 phototoxicity test was performed in presence or absence of DHQ treatment in different conditions. After another 24 h incubation period, cell viability was determined by Neutral Red uptake. For each condition, cell viability was expressed as percentage relative to untreated solvent controls. Then the dose-response curves (at the EC50 level) obtained for Norfloxacin with or without DHQ treatment was compared to assess DHQ photoprotective potential.

NIH-3T3 fibroblasts = assay: Chlorpromazine (CPZ)-induced cell phototoxicity under UVA, protective effect
From the text: Chlorpromazine (CPZ) is a neuroleptic drug widely used in medicine because of its tranquilizing and antipsychotic properties. CPZ often causes side effects including cutaneous photosensitization and ocular damage.

human neutrophils [1] = assay: Polymorphonuclear neutrophils oxidative burst, ROS production by chemiluminescence (PMA activation); details: neutrophils primed with TNF-α, activation by 100 ng/ml PMA; luminol chemiluminescence; FIG. 5
Description: ROS production is measured using a chemiluminescence standard procedure: briefly, one hundred microliters of human neutrophils (4×10^6/mL) were primed with TNF-α at 37° C. for 25 minutes. 100 μL luminol (1 μM final concentration) and HRP (62.5 U/mL final concentration) in HBSS were added, and 150-μL aliquots were transferred to a prewarmed 96-well luminometer plate. Light emission was recorded by a Berthold MicroLumat Plus luminometer (Berthold Technologies, Hartfordshire, United Kingdom) (data output is in relative light units per second)

human neutrophils [2] = assay: Neutrophils degranulation assessed by myeloperoxidase (MPO) release, fMLP stimulation, MPO enzyme immunoassay; details: fMLP 45 minutes at 37° C.
Description: Neutrophils were stimulated with formyl-methionyl-leucyl-phenylalanine for 45 minutes at 37° C. MPO released from neutrophils were assayed by using an MPO enzyme immunoassay. [table]

CCn1cc(C(=O)O)c(=O)c2cc(F)c(N3CCNCC3)cc21 [NFX, norfloxacin]
EC50 (Balb/c 3T3 fibroblasts; Mus musculus, BALB/c3T3, light or radiation study, No DHQ treatment, UVA exposure, read-out: NFX EC 50): 55 µg/mL (≈ 172 µM)

CN(C)CCCN1c2ccccc2Sc2ccc(Cl)cc21 [CPZ, Chlorpromazine, reference compound]
IC50 (NIH-3T3 fibroblasts; Mus musculus, NIH3T3, light or radiation study, control experiment (no treatment), UVA): 0.33 µg/mL (≈ 1.03 µM)

Nc1ccc(C(=O)O)cc1 [PABA, para-aminobenzoic acid]
Photoprotective effect against norfloxacin phototoxicity (Balb/c 3T3 fibroblasts): no effect

O=C1c2c(O)cc(O)cc2O[C@H](c2ccc(O)c(O)c2)[C@H]1O [DHQ, Dihydroquercetin]
Photoprotective effect against norfloxacin phototoxicity (Balb/c 3T3 fibroblasts): Dose-dependent photoprotective effect | Protection against phototoxicity induced by chlorpromazine+UVA (NIH-3T3 fibroblasts; NIH-3T3 fibroblasts, FIG. 4): efficiently protects | Effect on reactive oxygen species (ROS) production (human neutrophils [1]): Inhibitory effect

CC(C)=CCC[C@](C)(O)C1CC=C(C)CC1 (stereo partly shown) [Bisabolol]
MPO release (human neutrophils [2]; Bisabolol 20 μM): 810 U/mL | MPO release (human neutrophils [2]; Bisabolol 40 μM): 500 U/mL | MPO release (human neutrophils [2]; Bisabolol 100 μM): 250 U/mL | MPO release (human neutrophils [2]; Bisabolol 200 μM): 248 U/mL

Source: patent publication US20210113518A1, “Composition And Use Thereof Against Drugs Induced Phototoxicity” (AC BIOSCIENCE SA, priority 2018, published 2021)
